Source: US20020146441A1, “Selection method for cosmetic auxiliaries” (priority 2000, published 2002)

Legend:
[1] = W/O emulsion, substantivity on skin model (water resistance, watering test); format: physicochemical, sheep; details: amount found after 20 min watering relative to unwatered sample, isopropanol extract, GC, converted to the logarithm
Protocol: (§1) The amounts of the cosmetic auxiliaries found in the phase to be cared for are compared with the amount found in the cosmetic phase (relative partition parameters). These values are converted to the logarithm and entered as activity values into the regression table (Table 1). Using various methods, regression against the COSMO-RS and other descriptors (e.g. clogP and boiling point) are carried out, and the best correlation according to the validation is selected. In all of the regression equations belonging to the examples, cosmetic auxiliaries with a deviation in the regression of more than +/−0.43 log units from the experimental value are defined as outliers. […] In the next step, the COSMO-RS regression equation is linked to the regression table which contains all descriptors for all cosmetic auxiliaries. The use of the COSMO-RS regression equation on all cosmetic auxiliaries gives the prediction for the logarithmic relative partition parameters for all cosmetic auxiliaries. These values are then used for the manufacture of cosmetic products. The procedure is analogous in all examples.
(§2) The example reflects the substantivity of a sunscreen emulsion. The emulsion is applied to a skin model (sheep shorn wool, because of the content of wool grease), and the substantivity thereto is tested using a watering test. The emulsion is prepared in the generally customary manner. The UV filters and a mixture of 39 odorants are incorporated in accordance with the formulations. 0.10 g of this emulsion is applied to a section of the skin model 5×10 cm in size. After drying for 30 min, the sample is stirred for 20 min in 4.5 l of water at room temperature. The sample is left to dry for 12 hours and then boiled for 10 min with 60 ml of isopropanol in a closed system. The extract is transferred to a measuring flask and made up to 100 ml. 0.10 g of the emulsion is applied to another section of the skin model. After drying for 12 hours, it is extracted with isopropanol as above. The extracts are injected in equal amounts one after the other into a GC injector, and gas chromatograms are recorded. The amounts of the UV filters and odorants found in the extracts are compared with one another (relative partition parameters). The analytical results are then used mathematically as described above.

[2] = O/W emulsion, substantivity on skin model (water resistance, watering test); format: physicochemical, sheep; details: amount found after 20 min watering relative to unwatered sample, isopropanol extract, GC, converted to the logarithm
Protocol: as §1, §2

Row | Structure (SMILES) | Activity (logarithmic partition parameter for substantivity on a skin model) [1] | Activity (logarithmic partition parameter for substantivity on a skin model) [2]
1 | CC1CC(OC(=O)c2ccccc2O)CC(C)(C)C1 (centres unmarked) [Neo Heliopan ® HMS, Homosalate] | −0.2733 | −0.1571
2 | CC(=O)/C=C/C1C(C)=CCCC1(C)C (stereo not drawn) [Ionone alpha] | −0.0120 | 
3 | CCCCC(CC)COC(=O)c1ccccc1O (centres unmarked) [Neo Heliopan ® OS, 2-Ethylhexylsalicylate] | −0.2497 | −0.1464
4 | CC(=O)O[C@]1(C)CC[C@@]23C[C@@H]1C(C)(C)[C@@H]2CC[C@H]3C [Cedryl acetate] | −0.0170 | −0.0330
5 | C[C@@H]1CC[C@H]2C(C)(C)[C@H]3C[C@@]12CC[C@@]3(C)O [Cedrol] | −0.0111 | −0.0320
6 | CC1CCC(C(C)C)C(OC(=O)c2ccccc2N)C1 (centres unmarked) [Neo Heliopan ® MA, Menthyl anthranilate] | −0.2300 | −0.1314
7 | O=C1CCCCCCCCCCCC(=O)OCCO1 [Ethylene brassylate] | −0.0476 | 0.0010
8 | CC1=CCC2CC1C2(C)C (stereo not drawn) [alpha-Pinene] | −0.2470 | 
9 | COc1ccc(C(=O)c2ccccc2)c(O)c1 [Neo Heliopan ® BB, Benzophenone-3] | −0.2689 | −0.1595
10 | CCCCCC/C(C=O)=C\c1ccccc1 [Hexylcinnamaldehyde, alpha] | −0.1399 | −0.1250
11 | COc1ccc(C=CC(=O)OCCC(C)C)cc1 [Neo Heliopan ® E1000, Isoamyl p-Methoxycinnamate] | −0.2128 | −0.0762
12 | CC(C=O)Cc1ccc(C(C)(C)C)cc1 (centres unmarked) [Lilial] | −0.2120 | −0.1280
13 | C=C1C2CCC(C2)C1(C)C (centres unmarked) [Camphene] | −0.2420 | 
14 | CC(=O)/C=C/C1=C(C)CCCC1(C)C [Ionone, beta] | 0.1556 | 
15 | CC(C)CCOC(=O)c1ccccc1O [Isoamyl salicylate] | −0.2740 | −0.0960
16 | Cc1ccc(C=C2C(=O)C3(C)CCC2C3(C)C)cc1 (centres unmarked) [Neo Heliopan ® MBC, 4-Methylbenzylidene Camphor] | −0.2018 | −0.0966
17 | COc1ccc(C(=O)CC(=O)c2ccc(C(C)(C)C)cc2)cc1 [Neo Heliopan ® NH 357] | −0.1879 | −0.1922
18 | O=C(OCc1ccccc1)c1ccccc1O [Benzyl salicylate] | −0.1480 | −0.1300
